# Reference: article PMC7041630 (Experimental neurology, 2018)
# Assays:
# [1] = Liver microsome stability assay; format: in vitro ADME, macaque; settings: 2 μM compound, 0.5 mg mL−1 microsomes, with NADPH, one hour
# [2] = tested on: pT73-Rab10 in human PBMCs; experiment: Ex vivo pT73-Rab10 western blot, human PBMCs; format: cell-based; settings: 100 nM, two hours
# [3] = Single-dose IV/PO pharmacokinetics in rats; format: in vivo, rat; settings: for bioavailability: oral dosing, 1% methylcellulose vehicle
# [4] = Drug properties; format: physicochemical
# [5] = tested on: pT73-Rab10 in human neutrophils; experiment: Ex vivo pT73-Rab10 western blot, human neutrophils; format: cell-based; settings: 100 nM, two hours
# [6] = tested on: LRRK2; settings: ref Fell et al., 2015, Henderson et al., West; cited from earlier work
# [7] = tested on: pT73-Rab10 in mouse macrophages; experiment: Ex vivo pT73-Rab10 western blot, mouse macrophages; format: cell-based; settings: 100 nM, two hours
# [8] = tested on: WT-LRRK2; format: in vivo, rat; settings: non-transgenic rats; for phospho-LRRK2 in total protein lysates from kidney: higher concentrations of inhibitor; for total LRRK2 protein in the brain: higher concentrations, three days; for total LRRK2 protein in the lung (normalized to HSC70): three days of drug treatment
# [9] = molecular target: recombinant human WT-LRRK2 (Homo sapiens, UniProt Q5S007); experiment: LanthaScreen LRRKtide phosphorylation assay, WT-LRRK2; format: biochemical; settings: LanthaScreen at Km,app(ATP)
# Chain of recombinant human WT-LRRK2 (Q5S007 whole entry): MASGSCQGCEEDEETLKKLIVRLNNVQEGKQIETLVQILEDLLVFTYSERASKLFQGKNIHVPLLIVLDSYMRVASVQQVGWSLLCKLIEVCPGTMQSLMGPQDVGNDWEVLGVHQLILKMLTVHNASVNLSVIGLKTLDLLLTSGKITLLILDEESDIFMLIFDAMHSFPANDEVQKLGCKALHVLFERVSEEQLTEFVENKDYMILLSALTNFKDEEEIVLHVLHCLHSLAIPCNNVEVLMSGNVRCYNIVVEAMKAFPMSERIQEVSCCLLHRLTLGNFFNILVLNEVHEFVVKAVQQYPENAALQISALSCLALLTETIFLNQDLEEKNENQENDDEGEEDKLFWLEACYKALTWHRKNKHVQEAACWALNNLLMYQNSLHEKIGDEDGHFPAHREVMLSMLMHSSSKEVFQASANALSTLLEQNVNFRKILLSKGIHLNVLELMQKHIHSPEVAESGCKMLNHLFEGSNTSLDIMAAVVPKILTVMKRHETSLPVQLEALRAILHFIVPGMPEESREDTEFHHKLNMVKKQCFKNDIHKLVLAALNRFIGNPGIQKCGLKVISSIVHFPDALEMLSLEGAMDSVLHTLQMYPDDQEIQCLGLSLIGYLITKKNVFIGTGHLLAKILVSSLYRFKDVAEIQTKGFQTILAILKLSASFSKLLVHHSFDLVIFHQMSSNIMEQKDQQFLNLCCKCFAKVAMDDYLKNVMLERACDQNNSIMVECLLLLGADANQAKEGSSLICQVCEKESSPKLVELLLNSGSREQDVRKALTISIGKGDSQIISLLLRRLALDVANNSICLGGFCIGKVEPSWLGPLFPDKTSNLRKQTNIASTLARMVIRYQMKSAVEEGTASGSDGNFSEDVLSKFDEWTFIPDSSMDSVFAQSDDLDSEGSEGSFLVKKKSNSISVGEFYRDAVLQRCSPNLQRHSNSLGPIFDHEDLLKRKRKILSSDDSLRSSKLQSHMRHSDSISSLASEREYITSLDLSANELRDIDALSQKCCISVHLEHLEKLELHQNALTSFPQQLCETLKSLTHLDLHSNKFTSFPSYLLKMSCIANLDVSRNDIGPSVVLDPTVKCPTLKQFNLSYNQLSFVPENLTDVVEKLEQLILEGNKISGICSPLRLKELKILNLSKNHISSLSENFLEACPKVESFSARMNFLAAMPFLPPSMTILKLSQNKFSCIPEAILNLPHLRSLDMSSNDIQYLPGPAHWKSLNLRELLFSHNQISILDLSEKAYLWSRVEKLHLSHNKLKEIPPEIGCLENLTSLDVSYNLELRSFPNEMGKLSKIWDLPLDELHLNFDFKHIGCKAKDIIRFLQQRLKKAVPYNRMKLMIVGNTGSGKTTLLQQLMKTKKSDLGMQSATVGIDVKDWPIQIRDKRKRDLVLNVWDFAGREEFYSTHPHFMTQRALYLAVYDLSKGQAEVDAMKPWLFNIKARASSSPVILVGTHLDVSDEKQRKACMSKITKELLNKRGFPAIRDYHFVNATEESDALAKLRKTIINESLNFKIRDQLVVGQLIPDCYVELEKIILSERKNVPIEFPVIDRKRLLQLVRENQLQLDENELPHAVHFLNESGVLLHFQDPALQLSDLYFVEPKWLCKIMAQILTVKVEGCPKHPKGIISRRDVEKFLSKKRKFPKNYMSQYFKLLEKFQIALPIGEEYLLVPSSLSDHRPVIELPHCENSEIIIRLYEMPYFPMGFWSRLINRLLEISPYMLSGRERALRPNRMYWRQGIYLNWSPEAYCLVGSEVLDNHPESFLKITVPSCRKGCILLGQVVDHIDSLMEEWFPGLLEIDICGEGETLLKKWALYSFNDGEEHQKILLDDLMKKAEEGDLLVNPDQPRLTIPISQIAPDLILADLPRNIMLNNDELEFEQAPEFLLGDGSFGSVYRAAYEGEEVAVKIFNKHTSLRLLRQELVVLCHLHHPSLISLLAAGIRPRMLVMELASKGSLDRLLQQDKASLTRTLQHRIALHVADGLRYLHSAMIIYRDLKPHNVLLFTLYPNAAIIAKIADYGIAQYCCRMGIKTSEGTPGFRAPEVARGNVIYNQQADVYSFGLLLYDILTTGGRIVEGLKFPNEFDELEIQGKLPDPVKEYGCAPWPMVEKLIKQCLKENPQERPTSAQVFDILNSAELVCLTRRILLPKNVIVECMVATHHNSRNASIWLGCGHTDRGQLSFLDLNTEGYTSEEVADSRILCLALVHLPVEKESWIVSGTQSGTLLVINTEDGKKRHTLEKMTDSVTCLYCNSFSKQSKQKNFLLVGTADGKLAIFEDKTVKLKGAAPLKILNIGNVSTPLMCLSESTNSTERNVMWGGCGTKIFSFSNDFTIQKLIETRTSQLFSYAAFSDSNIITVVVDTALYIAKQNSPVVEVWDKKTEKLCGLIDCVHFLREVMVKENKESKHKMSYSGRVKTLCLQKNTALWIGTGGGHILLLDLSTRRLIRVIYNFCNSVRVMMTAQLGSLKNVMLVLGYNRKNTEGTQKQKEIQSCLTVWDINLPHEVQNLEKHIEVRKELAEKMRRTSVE
# [10] = In-diet dosing, plasma drug levels in rats; format: in vivo, rat; settings: chow up to 1050 mg kg−1
brain penetrant [3],bioavailability [3],aqueous solubility ([4]; compared to PF-360),brain-to-plasma ratio (total compound) [3],correlation of plasma to brain concentrations (r) ([3]; total compound),more potent in blocking LRRKtide phosphorylation than autophosphorylation [9],lipophilicity ([4]; compared to MLi2),highest plasma concentration achieved with in-diet dosing [10],SMILES,"microsomal stability, compound remaining [1]",pRab10 signal [2],pT73-Rab10 signal [5],binding in vitro [6],pT73-Rab10 signal [7],phospho-LRRK2 in total protein lysates from kidney [8],total LRRK2 protein in the brain [8],total LRRK2 protein in the lung (normalized to HSC70) [8]
~ 75%,~ 40%,poor,–,–,–,–,–,C[C@@H]1CN(c2cc(-c3n[nH]c4ccc(OC5(C)CC5)cc34)ncn2)C[C@H](C)O1 [MLi2],no significant concentrations of compound left after one-hour incubation,could not observe a reliable reduction in pRab10,virtually eliminated pT73-Rab10 signal,low to sub-nanomolar,virtually eliminated pT73-Rab10 signal,essentially no phospho-LRRK2 remaining,did not show these trends,did not reduce
–,~ 40%,–,0.48±0.03,0.89,~ 1 order of magnitude,lower lipophilicity,≤ 100 nM,Cn1cc(-c2c[nH]c3ncnc(N4CCOCC4)c23)cc1C#N [PF-360],no significant concentrations of compound left after one-hour incubation,–,–,low to sub-nanomolar,–,essentially no phospho-LRRK2 remaining,reduce total LRRK2 protein in the brain nearly to the same extent as reducing the amount of phosphorylated LRRK2 protein,did not reduce
